Where “and” joins values, the source holds several entries; their conditions need not be identical. Equal values may be shown once. Toxic doses and inconclusive results are not listed. The calls were made as follows: active = survival T/C of 150% or more; inactive = T/C below 125% in these data. Residues, ends and D or L forms follow the SMILES beside them. *: point of attachment. Bn = c1ccc(C*)cc1; For = O=C*
System: BDF1 mice, P388 leukemia ip, median survival T/C
Test: NCI In Vivo Anticancer Drug Screen. Data for tumor model P388 Leukemia (intraperitoneal) in B6D2F1 (BDF1) mice
Details: endpoint: median survival time, higher = longer survival
How it was run: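 Antitumour effect was judged in vivo: survival in drug-treated mice, normalised to that of vehicle-dosed controls, gives the reported T/C.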

[1] = dose: 50.0 mg/kg/injection, schedule: Q01DX009 (ip), vehicle: saline with Tween-80
[2] = dose: 100.0 mg/kg/injection, schedule: Q01DX009 (ip), vehicle: Klucel (hydroxypropylcellulose) (HPC)
[3] = dose: 100.0 mg/kg/injection, schedule: Q01DX009 (ip), vehicle: saline with Tween-80
[4] = dose: 200.0 mg/kg/injection, schedule: Q01DX009 (ip), vehicle: saline with Tween-80
[5] = dose: 100.0 mg/kg/injection, schedule: Q04DX003 (ip), vehicle: saline with Tween-80
[6] = dose: 200.0 mg/kg/injection, schedule: Q04DX003 (ip), vehicle: saline with Tween-80
[7] = dose: 400.0 mg/kg/injection, schedule: Q04DX003 (ip), vehicle: saline with Tween-80

Measured: T/C

CN(C)CC(C)(C)CO
inactive: dose: 25.0 mg/kg/injection, schedule: Q01DX009 (ip), vehicle: saline 96 % of control | dose: 50.0 mg/kg/injection, schedule: Q01DX009 (ip), vehicle: saline 106 % of control | dose: 100.0 mg/kg/injection, schedule: Q01DX009 (ip), vehicle: saline 101 % of control | dose: 200.0 mg/kg/injection, schedule: Q01DX009 (ip), vehicle: saline 107 % of control

O=C(CCCN1CCC(C(=O)c2ccc(Cl)cc2)CC1)c1ccc(F)cc1
inactive: dose: 12.5 mg/kg/injection, schedule: Q01DX009 (ip), vehicle: Klucel (hydroxypropylcellulose) (HPC) 112 % of control

CNC(CCc1ccccc1)C(=O)O (stereo not given)
inactive: dose: 50.0 mg/kg/injection, schedule: Q04DX003 (ip), vehicle: saline sonified 95 % of control | dose: 100.0 mg/kg/injection, schedule: Q04DX003 (ip), vehicle: saline sonified 91 % of control | dose: 200.0 mg/kg/injection, schedule: Q04DX003 (ip), vehicle: saline sonified 91 % of control

COc1ccc(/C=C2\CCC3C(CCCC34OCCO4)C2=O)cc1 (stereo not given)
inactive: dose: 45.0 mg/kg/injection, schedule: Q01DX009 (ip), vehicle: Klucel (hydroxypropylcellulose) (HPC) 104 % of control | [1] 100 % of control | dose: 65.0 mg/kg/injection, schedule: Q01DX009 (ip), vehicle: Klucel (hydroxypropylcellulose) (HPC) 95 % of control | [2] 118 % of control | [3] 104 % of control | dose: 100.0 mg/kg/injection, schedule: Q04DX003 (ip), vehicle: other 91 % of control | dose: 150.0 mg/kg/injection, schedule: Q01DX009 (ip), vehicle: Klucel (hydroxypropylcellulose) (HPC) 90 % of control | dose: 200.0 mg/kg/injection, schedule: Q01DX009 (ip), vehicle: Klucel (hydroxypropylcellulose) (HPC) 100 % of control | [4] 96 % of control | dose: 200.0 mg/kg/injection, schedule: Q04DX003 (ip), vehicle: other 108 % of control | dose: 400.0 mg/kg/injection, schedule: Q01DX009 (ip), vehicle: Klucel (hydroxypropylcellulose) (HPC) 95 % of control | dose: 400.0 mg/kg/injection, schedule: Q04DX003 (ip), vehicle: other 95 % of control

CC[C@](C)(O)C(=O)O[C@H]1C(=O)O[C@@H]2C[C@H]3C(C)=C[C@H](O)[C@@H](O)[C@]3(C)[C@H]3[C@@]4(O)OC[C@]32[C@@H]1[C@@H](C)[C@H]4O
inactive: dose: 1.0 mg/kg/injection, schedule: Q01DX010 (ip), vehicle: other 113 % of control | dose: 4.0 mg/kg/injection, schedule: Q01DX010 (ip), vehicle: other 113 % of control

Cc1nc(Cl)c2c(n1)Oc1nc(C)nc(Cl)c1C2c1ccc(Cl)cc1
inactive: dose: 100.0 mg/kg/injection, schedule: Q01DX001 (ip), vehicle: Klucel (hydroxypropylcellulose) (HPC) 88 % of control and 100 % of control | dose: 200.0 mg/kg/injection, schedule: Q01DX001 (ip), vehicle: Klucel (hydroxypropylcellulose) (HPC) 95 % of control | dose: 400.0 mg/kg/injection, schedule: Q01DX001 (ip), vehicle: Klucel (hydroxypropylcellulose) (HPC) 88 % of control and 90 % of control

CCCCCCCCCCCCCCCCNCCO
inactive: dose: 50.0 mg/kg/injection, schedule: Q01DX009 (ip), vehicle: Klucel (hydroxypropylcellulose) (HPC) 110 % of control | [2] 112 % of control

CC(C)CC(NC(=O)C(Cc1ccc(OCc2ccccc2)cc1)NC=O)C(=O)O (stereo not given) (For-Tyr(Bn)-Leu-OH; configuration not given here)
inactive: [1] 110 % of control | [3] 95 % of control and 100 % of control (2×) | dose: 100.0 mg/kg/injection, schedule: Q01DX009 (ip), vehicle: sodium bicarbonate 90 % of control | [5] 105 % of control | [4] 86 % of control and 95 % of control and 110 % of control | dose: 200.0 mg/kg/injection, schedule: Q01DX009 (ip), vehicle: sodium bicarbonate 105 % of control | [6] 105 % of control | dose: 400.0 mg/kg/injection, schedule: Q01DX009 (ip), vehicle: saline with Tween-80 90 % of control | [7] 110 % of control

COC(=O)c1cccn1C(=O)c1c2nc3c(C(=O)n4cccc4C(=O)OC)ccc(C)c3oc-2c(C)c(=O)c1N
inactive: [5] 101 % of control | [6] 102 % of control | [7] 103 % of control

COC1(c2ccco2)OC1(C)C (stereo not given)
inactive: dose: 5.0 mg/kg/injection, schedule: Q01DX009 (ip), vehicle: Klucel (hydroxypropylcellulose) (HPC) 86 % of control | dose: 5.0 mg/kg/injection, schedule: Q04DX003 (ip), vehicle: saline 109 % of control | dose: 10.0 mg/kg/injection, schedule: Q01DX009 (ip), vehicle: Klucel (hydroxypropylcellulose) (HPC) 86 % of control | dose: 10.0 mg/kg/injection, schedule: Q04DX003 (ip), vehicle: saline 109 % of control | dose: 20.0 mg/kg/injection, schedule: Q01DX009 (ip), vehicle: Klucel (hydroxypropylcellulose) (HPC) 90 % of control | dose: 20.0 mg/kg/injection, schedule: Q04DX003 (ip), vehicle: saline 104 % of control

— PubChem BioAssay AID328 (DTP/NCI, 2004)
